Source: article PMC5514153, “Targeting PTPRZ inhibits stem cell-like properties and tumorigenicity in glioblastoma cells” (Scientific Reports, 2017)

Tests used:
hPTPN6 = biological target: T1, hPTPN6 (Homo sapiens, UniProt P29350); test: In vitro PTPase assay (DiFMUP), PTPN6; format: biochemical; conditions: 60-min preincubation
T1 construct: the catalytic domains of PTPN1 and PTPN6 were expressed as glutathione-S-transferase (GST) fusion proteins; GST (N); made in house; host or cells: Escherichia coli BL21
T1 sequence (P29350 244-515 limits assumed): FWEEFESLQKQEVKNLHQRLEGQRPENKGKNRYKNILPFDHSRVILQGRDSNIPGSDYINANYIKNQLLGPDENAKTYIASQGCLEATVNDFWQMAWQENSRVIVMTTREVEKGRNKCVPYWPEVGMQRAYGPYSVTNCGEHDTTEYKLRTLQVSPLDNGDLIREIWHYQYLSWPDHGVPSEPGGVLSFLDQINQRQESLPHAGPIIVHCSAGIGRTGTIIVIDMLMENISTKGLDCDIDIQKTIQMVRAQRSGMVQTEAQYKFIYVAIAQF
Description: Figure 4 NAZ2329, an allosteric inhibitor of R5 RPTP subfamily members. (A) Structure of NAZ2329. (B) Effect of preincubation of NAZ2329 on its inhibitory activity against PTPRZ. Recombinant human PTPRZ1 enzyme (the whole intracellular region) was premixed with NAZ2329 for the indicated times and followed by addition of a fluorogenic DiFMUP (non-specific PTP substrate, 6,8-difluoro-4-methylumbiliferyl phosphate) to measure PTP inhibitory activity. (C) Time dependence. The PTPRZ1 enzyme was added to the inhibitor–substrate mixture, and the inhibitory activity was determined at each time point relative to the vehicle control. (D) Reversibility of inhibition. […] The mixture was then 20-fold diluted, and recovered PTP activity was expressed as the relative activity compared with the vehicle-treated enzyme. […] PTPRZ1 enzymes were preincubated with NAZ2329 for 60 min, and the PTP activity was measured using DiFMUP. […]
Recombinant proteins corresponding to the entire intracellular regions (ICRs) of PTPRZ1, PTPRA, and PTPRM were expressed using a baculovirus-silkworm expression system, and purified as described. The ICRs of PTPRG, PTPRS, and PTPRB and the catalytic domains of PTPN1 and PTPN6 were expressed as glutathione-S-transferase (GST) fusion proteins from each pGEX plasmid in Escherichia coli strain BL21 (ref. [6]). […]

C6 cells = test: Boyden chamber migration assay, C6 cells; format: cell-based, rat; conditions: 3 h
Description: Figure 7 Cellular effects of NAZ2329 on the malignant phenotypes of C6 cells. (A) Phosphorylation of paxillin at Tyr-118. C6 cells were incubated with NAZ2329 for the indicated periods. Immunoprecipitated paxillin was analyzed by Western blotting using anti-pY118-paxillin and anti-paxillin. Blots are representative of five independent cultures. […] (B) Cell proliferation assay. C6 cells were incubated for 48 h with NAZ2329 in normal medium containing 2% FBS. […] (C) Boyden chamber assay. Cells were allowed to migrate for 3 h. DAPI-stained nuclei are shown before (total) and after (migrated) the removal of cells remaining in the top chamber. Scale bars, 100 µm. […] (D,E) Sphere formation (D) and SOX2 expression (E). C6 cells were cultured in CSC medium for 7 days with indicated concentrations of NAZ2329. Images are representative of five independent cultures. Scale bars, 100 µm. […] (F) Self-renewal of C6 spheres. C6 spheres were initially developed in CSC medium for 7 days, followed by an incubation with NAZ2329 in CSC medium for 5 days. Images are representative of five independent cultures. Scale bars, 100 µm. […] Full-length blots and gels are presented in Supplementary Fig. S7.
This assay was performed as described previously. […] Cells were allowed to migrate for 3 h, and the number of cells that migrated to the lower surface was counted under a conventional fluorescence microscope.

IC50 (hPTPN6): 15.2 µM
SMILES: CCOc1ccc(C(F)(F)F)cc1CSc1ccsc1C(=O)NS(=O)(=O)c1ccccc1 [NAZ2329]
cell migration (C6 cells): inhibited
